Several values for one entry are separate records, joined by “and”; a condition that tells them apart may be missing. Equal entries are not always repeated. Where two headings read alike, the source gives them in different places.
Tests used:
SCLC cell lines = system: SCLC cell lines; set-up: method as in protocol [5]; settings: pre-clinical models of SCLC; ref protocol [5]; cited from earlier work
[1] = system: patients with advanced solid tumors; assay: Phase I dose escalation (3 + 3 design): DLTs and MTD/RP2D of CRLX101 plus olaparib; assay type: in vivo, human; settings: CRLX101 12 mg/m2 combined with Olaparib 250 tab bid; % of single-agent MTD; Current study
Excerpt: Olaparib tablets were given at escalating doses across cohorts (as shown in Fig. 1), administered twice daily on days 3–13 and 17–26 of the treatment cycle.
A standard 3 + 3 design was used for dose escalation. […] DLTs were based on toxicities observed during the first cycle. […] Study treatment was discontinued if there was a > 3-week delay in reinstitution of treatment due to drug-related toxicity during a cycle. Dose reductions were allowed for toxicities. A maximum of two dose reductions were allowed. Dose re-escalation was not allowed.

γ-H2AX [2] = assay: γ-H2AX foci per cell in PBMCs; assay type: in vivo, human; settings: for γ-H2AX foci per cell in PBMCs Minus D1, averages (Fig 3G) / γ-H2AX foci per cell in PBMCs, averages (Fig 3G): D3 (before olaparib); for γ-H2AX, AVERAGES foci per cell / γ-H2AX, AVERAGES excess foci per cell: PBMCs; for γ-H2AX, AVERAGES foci per cell: D3 (48 h after CRLX101, before olaparib)
Protocol: (§1) PBMCs were isolated by Ficoll gradient, washed 3 times with phosphate-buffered saline (PBS), fixed in 2% paraformaldehyde (PFA) for 20 min, washed 3 times with PBS, and spotted on slides by cytospin (800 rpm/4 min). PBMCs on slides were permeabilized with pre-chilled ethanol 70% and slides were stored at 4 °C overnight. […] Finally, slides were incubated at 37 °C for 5 min with a solution containing RNAse A (0.5 mg/mL) and propidium iodide (PI) (5 µg/mL). Slides were then mounted with mounting medium containing PI (Vectashield, Vector Laboratories, Inc., Burlingame, CA, USA) and sealed with nail polish.
(§2) Samples were imaged by laser scanning confocal microscopy (Zeiss LSM 710 NLO). Optical sections through PBMCs and hair bulbs were combined in a maximum projection using the Zeiss Zen software. The foci were counted in PBMCs using the FociCounter software[55] by analyzing at least 200 cells, while γ-H2AX intensities were measured in the extremity of the hair bulbs with the Image J software. The above antibodies have been used in previous studies[56],[57].

γ-H2AX [3] = assay: γ-H2AX intensity in plucked hair bulbs; assay type: in vivo, human; settings: for gamma-H2AX intensities / excess gamma-H2AX intensities (minus D1) / gamma-H2AX intensities minus D1, averages / gamma-H2AX intensities, averages: plucked hairs; for gamma-H2AX intensities / excess gamma-H2AX intensities (minus D1): D3 (48 h after CRLX101, before olaparib); for gamma-H2AX intensities minus D1, averages / gamma-H2AX intensities, averages: D3 (before olaparib)
Protocol: as §1
Hair bulbs were collected in 1.5 microtubes filled with cold PBS and placed on ice directly after plucking. Plucked hairs were then fixed for 20 min at room temperature with 2% PFA in 1.5 microtubes. Following 3 washes with 1 ml PBS, plucked hairs were imaged, and anagen hair bulbs hairs were selected for γ-H2AX detection. Samples were permeabilized with pre-chilled ethanol 70%, washed, and stored at 4 °C until use. γ-H2AX detection was performed as described for PBMCs, but times for blocking and staining procedures were increased by 50%. Washes were performed by 3 washes with PBS. After incubation with the RNAse and PI solution at 37 °C for 30 min, hair shafts were detached from the bulbs by using a razor blade, and hair bulbs were mounted between a slide and a coverslip with mounting medium containing PI and sealed with nail polish.
as §2

[4] = system: patients with advanced solid malignancies; settings: cited from earlier work
[5] = system: platinum-sensitive SCLC relapse; set-up: method as in protocol [8]; settings: preliminary data, ref protocol [8], cited from earlier work
[6] = system: xenografts and patient-derived xenografts (PDXs); set-up: method as in protocol [7]; settings: animal models; ref protocol [7]; cited from earlier work
[7] = system: patients with solid tumors; settings: cited from earlier work
[8] = phase 1/2a patients receiving the MTD (n=44), no grade 4

CNCc1ccc(-c2[nH]c3cc(F)cc4c3c2CCNC4=O)cc1 [rucaparib]
single agent activity (SCLC cell lines): striking single agent activity in a majority of SCLC cell lines tested

Poly-CD-PEG-Camptothecin [CRLX101]
Topo1i % of MTD [1]: 80% | γ-H2AX foci per cell in PBMCs Minus D1, averages (Fig 3G) (γ-H2AX [2]; DL1): 0.009559 | γ-H2AX foci per cell in PBMCs, averages (Fig 3G) (γ-H2AX [2]; DL1, average across patients): 0.2861 | γ-H2AX foci per cell in PBMCs Minus D1, averages (Fig 3G) (γ-H2AX [2]; DL2): -0.04097 | γ-H2AX foci per cell in PBMCs, averages (Fig 3G) (γ-H2AX [2]; DL2, average across patients): 0.07487 | γ-H2AX foci per cell in PBMCs Minus D1, averages (Fig 3G) (γ-H2AX [2]; DL3): 0.07028 | γ-H2AX foci per cell in PBMCs, averages (Fig 3G) (γ-H2AX [2]; DL3, average across patients): 0.3286 | γ-H2AX foci per cell in PBMCs Minus D1, averages (Fig 3G) (γ-H2AX [2]; DL4): 0.05059 | γ-H2AX foci per cell in PBMCs, averages (Fig 3G) (γ-H2AX [2]; DL4, average across patients): 0.1354 | γ-H2AX foci per cell in PBMCs Minus D1, averages (Fig 3G) (γ-H2AX [2]; DL4R): 0.1138 | γ-H2AX foci per cell in PBMCs, averages (Fig 3G) (γ-H2AX [2]; DL4R, average across patients): 0.1974 | γ-H2AX, AVERAGES foci per cell (γ-H2AX [2]; DL1, per patient): 0.4504 foci per cell and 0.1217 foci per cell | γ-H2AX, AVERAGES foci per cell (γ-H2AX [2]; DL2, per patient): 0.06098 foci per cell and 0.03645 foci per cell and 0.07605 foci per cell and 0.04348 foci per cell and 0.1574 foci per cell | γ-H2AX, AVERAGES foci per cell (γ-H2AX [2]; DL3, per patient): 0.574 foci per cell and 0.2632 foci per cell and 0.1488 foci per cell | γ-H2AX, AVERAGES foci per cell (γ-H2AX [2]; DL4, per patient): 0.05652 foci per cell and 0.07904 foci per cell and 0.3651 foci per cell and 0.04096 foci per cell | γ-H2AX, AVERAGES foci per cell (γ-H2AX [2]; DL4R, per patient): 0.05895 foci per cell and 0.2317 foci per cell and 0.2655 foci per cell and 0.1875 foci per cell and 0.2432 foci per cell | γ-H2AX, AVERAGES excess foci per cell (γ-H2AX [2]; D3 (before olaparib) minus D1, DL1, per patient): 0.02853 foci per cell and -0.009408 foci per cell | γ-H2AX, AVERAGES excess foci per cell (γ-H2AX [2]; D3 (before olaparib) minus D1, DL2, per patient): 0.01208 foci per cell and -0.0007052 foci per cell and -0.1169 foci per cell and -0.007436 foci per cell and -0.09186 foci per cell | γ-H2AX, AVERAGES excess foci per cell (γ-H2AX [2]; D3 (before olaparib) minus D1, DL3, per patient): 0.159 foci per cell and 0.113 foci per cell and -0.06118 foci per cell | γ-H2AX, AVERAGES excess foci per cell (γ-H2AX [2]; D3 (before olaparib) minus D1, DL4, per patient): -0.04714 foci per cell and 0.07394 foci per cell and 0.1683 foci per cell and 0.007302 foci per cell | γ-H2AX, AVERAGES excess foci per cell (γ-H2AX [2]; D3 (before olaparib) minus D1, DL4R, per patient): 0.006793 foci per cell and 0.06366 foci per cell and 0.2087 foci per cell and 0.1048 foci per cell and 0.1705 foci per cell | γH2AX signal after CRLX101 alone (γ-H2AX [3]; Day 3 (48 h after CRLX101, pre-olaparib) vs pre-treatment, hair follicles and PBMC): increase in γH2AX signal | gamma-H2AX intensities (γ-H2AX [3]; DL1, average per patient): 4.816 | excess gamma-H2AX intensities (minus D1) (γ-H2AX [3]; DL1, per patient): 2.945 | gamma-H2AX intensities (γ-H2AX [3]; DL2, average per patient): 5.391 and 2.136 and 5.3349 and 5.978 and 6.804 | excess gamma-H2AX intensities (minus D1) (γ-H2AX [3]; DL2, per patient): 2.273 and 0.6534 and 4.441 and 4.582 and 4.99 | gamma-H2AX intensities (γ-H2AX [3]; DL3, average per patient): 4.982 and 13.4338 and 12.7188 | excess gamma-H2AX intensities (minus D1) (γ-H2AX [3]; DL3, per patient): 4.135 and 12.5502 and 12.1828 | gamma-H2AX intensities (γ-H2AX [3]; DL4, average per patient): 3.4222 and 3.662 and 5.428 | excess gamma-H2AX intensities (minus D1) (γ-H2AX [3]; DL4, per patient): 2.309 and 3.241 and 5.235 | gamma-H2AX intensities (γ-H2AX [3]; DL4R, average per patient): 4.487 and 2.444 and 10.191 and 5.772 | excess gamma-H2AX intensities (minus D1) (γ-H2AX [3]; DL4R, per patient): 3.986 and 2 and 9.666 and 4.568 | gamma-H2AX intensities minus D1, averages (γ-H2AX [3]; DL1): 2.945 | gamma-H2AX intensities, averages (γ-H2AX [3]; DL1, average across patients): 4.816 | gamma-H2AX intensities minus D1, averages (γ-H2AX [3]; DL2): 3.388 | gamma-H2AX intensities, averages (γ-H2AX [3]; DL2, average across patients): 5.129 | gamma-H2AX intensities minus D1, averages (γ-H2AX [3]; DL3): 9.623 | gamma-H2AX intensities, averages (γ-H2AX [3]; DL3, average across patients): 10.3781 | gamma-H2AX intensities minus D1, averages (γ-H2AX [3]; DL4): 0.8727 | gamma-H2AX intensities, averages (γ-H2AX [3]; DL4, average across patients): 4.171 | gamma-H2AX intensities minus D1, averages (γ-H2AX [3]; DL4R): 3.856 | gamma-H2AX intensities, averages (γ-H2AX [3]; DL4R, average across patients): 5.7233 | Best overall response stable disease ([4]; 16 of a subset of NSCLC patients): 73% | Best overall response stable disease ([4]; 28 patients treated at the MTD): 64% | MTD ([4]; CRLX101 monotherapy, bi-weekly, IV over 60 min, ref protocol [15]): 15 mg/m2 | Median progression-free survival (PFS) ([4]; patients treated at the MTD): 3.7 months | Grade 3 fatigue [4, 8]: 9% | Grade 3 neutropenia [4, 8]: 9% | Median progression-free survival (PFS) ([4]; subset of NSCLC patients): 4.4 months

Cn1ncnc1[C@H]1c2n[nH]c(=O)c3cc(F)cc(c23)N[C@@H]1c1ccc(F)cc1 [talazoparib]
single agent activity (SCLC cell lines): striking single agent activity in a majority of SCLC cell lines tested | RECIST confirmed partial responses, patients ([5]; of 23 patients): 2 | stable disease lasting more than 24 weeks, patients ([5]; of 23 patients): 3 | clinical benefit rate [5]: 25% | anti-tumor activity as a single agent [6]: comparable or superior to cisplatin

C[C@]1(c2nc3c(C(N)=O)cccc3[nH]2)CCCN1 [veliparib]
PARPi % of MTD ([7]; Veliparib 50 mg BID with Liposomal Irinotecan 70 mg/m2 q2w, ref LaRose, Oncologist, 2023): 13% | PARPi % of MTD ([7]; Veliparib 300 mg bid with Topotecan 3 mg/m2 d2,9,16, ref Hendrickson, Clin Can Res, 2017): 75% | PARPi % of MTD ([7]; Veliparib 10 bid d1-5 with Topotecan 0.6 mg/m2/d1-5, % of single-agent MTD, ref Kummar, Can Res, 2011): 3% | PARPi % of MTD ([7]; Veliparib 10 bid d1-5 with Topotecan 0.6 mg/m2/d1-5, % of single-agent MTD, ref Kummar, Can Res, 2011, listed as Veliparib): ≈ 3% | PARPi % of MTD ([7]; Veliparib 40 bid d1-14 with Irinotecan 100 mg/m2, ref LoRusso, Clin Can Res, 2016): 10%

CC[C@@]1(O)C(=O)OCc2c1cc1n(c2=O)Cc2cc3c(CN(C)C)c(O)ccc3nc2-1 [topotecan]
Topo1i % of MTD ([7]; Topotecan 0.6 mg/m2/d1-5 with Veliparib 10 bid d1-5, % of single-agent MTD, ref Kummar, Can Res, 2011): 40% | Topo1i % of MTD ([7]; Topotecan 1 mg/m2/d1-3 with Olaparib 100 mg bid d1-21, ref Samol, Inv New Drugs, 2012): 40% | Topo1i % of MTD ([7]; Topotecan 3 mg/m2 d2,9,16 with Veliparib 300 mg bid, ref Hendrickson, Clin Can Res, 2017): 75%

CCc1c2c(nc3ccc(OC(=O)N4CCC(N5CCCCC5)CC4)cc13)-c1cc3c(c(=O)n1C2)COC(=O)[C@]3(O)CC [Irinotecan]
Topo1i % of MTD ([7]; Irinotecan 100 mg/m2 with Veliparib 40 bid d1-14, ref LoRusso, Clin Can Res, 2016): 80% | Topo1i % of MTD ([7]; Irinotecan 125 mg/m2 q2w with Olaparib 50 mg bid d1-5, ref Chen, Inv New Drugs, 2016): 69% | Topo1i % of MTD ([7]; Irinotecan 200 mg/m2 q3w with Olaparib 50 mg qd d1-21, ref Chen, Inv New Drugs, 2016): 57%

— publication PMC12559310, “Tumor-targeted top1 inhibitor delivery with optimized parp inhibition in advanced solid tumors: a phase i trial of gapped scheduling” (Nature Communications, 2025)
